Consider 4 compounds from ChEMBL document CHEMBL1159143, “Benzofuran based non-peptide antagonists of angiotensin II related to GR117289: part IV; imidazopyridinylbenzofurans” (Bioorg Med Chem Lett, 1994).

Data set [1] can be described thus: Compound was tested for plasma half-life period in rat. The format is ADME, organism-based.
Data set [2] in a line: Oral bioavailability in rat. The class given is ADME, organism-based. Conditions: in vivo.
Data set [3] can be described thus: Volume distribution in rat. The format is ADME, organism-based. Conditions: in vivo.
The subject of data set [4] is Type-1 angiotensin II receptor (Oryctolagus cuniculus). Briefly: In vitro inhibitory activity against Angiotensin II receptor in rabbit aorta was evaluated.
Data set [5] can be described thus: Compound was tested for plasma clearance in rats. The class given is ADME, organism-based. Conditions: rat, read-out: Clp.

With `CCc1nc2c(C)cc(CO)nc2n1Cc1ccc2oc(-c3ccccc3NS(=O)(=O)C(F)(F)F)c(Br)c2c1`, the half-life (usually the time in which the quantity being followed falls by half) in data set [1] was 5.7 h. Besides, in data set [2], the bioavailability was 115%. The Vd (in general, the apparent volume that relates the amount in the body to the concentration in plasma or blood) in data set [3] came to 2.4 L/kg. For the same compound, in data set [4], the pKB (as a rule, the negative decadic logarithm of the KB, by convention in mol/L) was 8.6. For the same compound, in data set [5], the clearance is 4.8 mL/min/kg.
In the case of `CCc1nc2c(C)cc(C)nc2n1Cc1ccc2oc(-c3ccccc3NS(=O)(=O)C(F)(F)F)c(Br)c2c1`, the half-life in data set [1] was 2.8 h. Further, the bioavailability in data set [2] worked out at 70%. This compound showed a Vd in data set [3] of 1.33 L/kg. This compound showed a pKB in data set [4] of 9.3. Further, the clearance in data set [5] was 5.49 mL/min/kg.
Compound `CCc1nc2c(C)ccnc2n1Cc1ccc2oc(-c3ccccc3NS(=O)(=O)C(F)(F)F)c(Br)c2c1` returned a pKB in data set [4] of 8.3.
`CCc1nc2c(C)cc(C(=O)O)nc2n1Cc1ccc2oc(-c3ccccc3NS(=O)(=O)C(F)(F)F)c(Br)c2c1` yielded a pKB in data set [4] of 9.3.
